IC50 data for seven molecules are collected here from patent publication US20030220361A1, “Nicotinamide derivatives and a tiotropium salt in combination for the treatment of diseases” (priority 2002, published 2003).

This assay deals with TNFα release from human peripheral blood mononuclear cells. The assay is described as follows: Inhibition of LPS-stimulated TNFα release from human peripheral blood mononuclear cells (TNFα screen). The class given is cell-based. Particulars: human PBMC, LPS stimulation, 18 hours incubation, TNFα in supernatant by ELISA. As to the method:
Venous blood is collected from healthy volunteers and the mononuclear cells purified by centrifugation through Histopaque (Ficoll) cushions. TNFα production from these cells is stimulated by addition of lipopolysaccharide. After 18 hours incubation in the presence of LPS, the cell supernatant is removed and the concentration of TNFa in the supernatant determined by ELISA. Addition of PDE4 inhibitors reduces the. amount of TNFQ produced. An IC50 is determined which is equal to the concentration of compound that gives 50% inhibition TNFα production as compared to the LPS stimulated control wells.

As for `Cc1ccc(O)c(C(=O)N[C@H]2CC[C@@H](NC(=O)c3cc(F)cnc3Oc3cccc(C4CC4)c3)CC2)c1` [Example 204], the IC50 came to 0.3 nM.
In turn, `Cc1ccc(O)c(C(=O)N[C@H]2CC[C@@H](NC(=O)c3cc(F)cnc3Oc3cccc(OC4CCC4)c3)CC2)c1` [Example 205] gave a concentration for half-maximal inhibition (IC50) of 0.55 nM.
Turning to `O=C(O)c1ccccc1C(=O)NC1CCC(NC(=O)c2cc(F)cnc2Oc2ccc(F)cc2)CC1` (stereo not shown) [Example 76], the IC50 is 49 nM.
As to `O=C(N[C@H]1CC[C@@H](NC(=O)c2cc(F)cnc2Oc2ccc(F)c(F)c2)CC1)c1cc(CO)ccc1O` [Example 183], the half-inhibitory concentration (IC50) came to 0.07 nM.
The molecule `Cc1ccc(C(=O)N[C@H]2CC[C@@H](NC(=O)c3cc(F)cnc3Oc3cccc(OC(F)(F)F)c3)CC2)c(O)c1` [Example 195, Syn-5-Fluoro-N-[4-(2-hydroxy-4-methyl-benzoylamino)-cyclohexyl]-2-(3-trifluoromethoxy-phenoxy)-nicotinamide] registered an IC50 of 0.4 nM.
`Cc1ccc(O)c(C(=O)NC2CCC(NC(=O)c3cc(F)cnc3Oc3cccc(F)c3)CC2)c1` (stereo not shown) [Example 213]: the half-maximal inhibitory concentration (IC50) was 0.2 nM.
In turn, `O=C(NC1CCN(C(=O)CCc2ccccc2O)CC1)c1cc(F)cnc1Oc1ccc(F)cc1` [Example 91] displayed a 50% inhibitory concentration (IC50) of 37 nM.
